Read-outs that look alike come from different tables or passages of the source.

The subject of experiment [1] is TMD-8 cell line. The experiment is described as follows: Inhibition assay of tumor cell activity (cell viability), TMD-8. Particulars: Homo sapiens, TMD8, 48 h, individual compound, read-out: Inh % on TMD-8 cell line (AVG). The class given is cell-based, human. The protocol: (§1) Inhibition Assay of Tumor Cell Activity:
(§2) Tumor cells (TMD-8, DoHH2 and WSU-DLCL2) were transferred and attached to 96-well plates. After one night, blank buffer and selected concentrations (0.01 nM-100 μM) of the test compound solution were added. After 48 hours incubation, CellTiter-Go was added to lyse the cells. Recording luminescent signal and calculate the percent inhibition of cell viability

In experiment [2] the test system is DoHH-2 cell line. The experiment is described as follows: Inhibition assay of tumor cell activity (cell viability), DoHH-2. Type of experiment: cell-based. Particulars: Homo sapiens, individual compound, read-out: Inh % on DoHH-2 cell line (AVG). As to the method:
as §1, §2

Experiment [3] deals with resistant WSU-DLCL2 cell line. The experiment is described as follows: Inhibition assay of tumor cell activity (cell viability), WSU-DLCL2. The class given is cell-based. Particulars: Homo sapiens, WSUDLCL2, individual compound, read-out: Inh % on resistant WSU-DLCL2 cell line (AVG). The protocol:
as §1, §2

For experiment [4], the system named is TMD-8 lymphoma xenograft. The experiment is described as follows: Inhibition of tumor growth in vivo, TMD-8 lymphoma xenograft SCID mouse model. Particulars: TMD-8, Oral, BID. As to the method: Inhibition Study of Tumor Growth In Vivo:
SCID mice or nude mice (weighing about 18 g at the beginning of the experiment) were randomly divided into groups by the software in order to achieve close average weights between groups and control the bias within the allowable range. The mice were injected BTK cell lines (TMD-8, WSU-DLCL2 and DoHH-2) for tumor formation. Inhibitors were administered orally once or twice a day, a total of 14 days, 21 days or 28 days. Body weights and tumor volume were recorded.
Xenograft Tumor Models Inoculated with TMD-8, or DoHH2, or WSU-DLCL2 Tumor Cell Lines:
TMD-8 is a sensitive human diffuse large B-cell lymphoma cell line, and DoHH2 is a more difficult to treat human follicular lymphoma cell line, while WSU-DLCL2 is a multi-drug resistant (MDR) human non-Hodgkin's lymphoma cell line. Drug combination therapies provide better efficacies in all three tumor models than single targeted agent alone.
The TMD-8, DoHH2, WSU-DLCL2 tumor cells were maintained in vitro as a suspension culture in RPMI-1640 medium supplemented with 10% heat inactivated fetal calf serum at 37° C. in an atmosphere of 5% CO2 in air. The tumor cells were routinely subcultured twice weekly. The cells growing in an exponential growth phase were harvested and counted for tumor inoculation. Each mouse was inoculated subcutaneously at the right flank with the tumor cells (10×10^6) in 0.2 ml of PBS with Matrigel (1:1) for tumor development. The treatments were started after the average tumor size reached approximately 100-200 mm^3. Each group consisted of 6-10 tumor-bearing mice. The testing article (vehicle, compound or combination) was orally administrated to the mice according to the predetermined doses for 14-days or 21-days. Animal body weight and tumor volume were measured every 2- or 3-days throughout the treatment.

The test system of experiment [5] is WSU-DLCL2 xenograft. Particulars: gavage to mice, 480 mg/kg/day, Knutson et al., cited from earlier work.

Take `Nc1cccc2c1C(=O)N(C1CCC(=O)NC1=O)C2=O` (stereo not shown) [Compound 15, Pomalidomide]: the figures for the inhibition at 0.01 µM in experiment [1] (0.01 uM (10 nM)), in experiment [2] (0.01 uM) and in experiment [3] (0.01 uM) were 45.1%, -7.95% and -14.5%, respectively. For the same compound, the inhibition at 0.1 µM was 61.7% in experiment [1] (0.1 uM (100 nM)), 6.75% in experiment [2] (0.1 uM) and -8.32% in experiment [3] (0.1 uM). Further, the figures for the inhibition at 1 µM in experiment [1] (1 uM (1,000 nM)), in experiment [2] (1 uM) and in experiment [3] (1 uM) were 76.8%, 51.3% and 46.6%, respectively. Besides, the “Antitumor effect (%)” value in experiment [4] (FIG. 2, 14 days, 30 mg/kg) is 24%; in experiment [4] (FIG. 3, 21 days, 10 mg/kg) it was −8%.
On to `CCN(c1cc(-c2ccc(CN3CCOCC3)cc2)cc(C(=O)NCc2c(C)cc(C)[nH]c2=O)c1C)C1CCOCC1` [EPZ-6438], for which the entries for the “effect against the WSU-DLCL tumor” value in experiment [5] and in experiment [5] (listed as EZ-6438) were “achieved a similar effect” and “inhibited tumor growth”, respectively.

The values are drawn from patent publication US10098900B2, “Pharmaceutical compositions and their use for treatment of cancer and autoimmune diseases” (ZHEJIANG DTRM BIOPHARMA CO. LTD., priority 2015, dated 2018).
